Results: BindingDB's records for patent WO2022109573 (VERTEX PHARMACEUTICALS INCORPORATED, 2022)

Molecular target: T1, Cystic fibrosis transmembrane conductance regulator [1-507,509-1480] (Human, UniProt P13569, DEL508-508)
T1 construct: 1-507,509-1480
Test: Chamber Assay of CFTR-mediated short-circuit currents
Method: ssing chamber experiments were performed using human bronchial epithelial (HBE) cells derived from CF subjects heterozygous for F508del and a minimal function CFTR mutation (F508del/MF-HBE) and cultured as previously described (Neuberger T, Burton B, Clark H, Van Goor F Methods Mol Biol 2011:741:39-54). After four days the apical media was removed, and the cells were grown at an air liquid interface for >14 days prior to use. […] To isolate the CFTR-mediated short-circuit (ISC) current, F508del/MF-HBE grown on Costar Snapwell cell culture inserts were mounted in an Ussing chamber and the transepithelial ISC was measured under voltage-clamp recording conditions (Vhold= 0 mV) at 37 °C. The basolateral solution contained (in mM) 145 NaCl, 0.83 K2HPO4, 3.3 KH2PO4, 1.2 MgCl2, 1.2 CaCl2, 10 Glucose, 10 HEPES (pH adjusted to 7.4 with NaOH) and the apical solution contained (in mM) 145 NaGluconate, 1.2 MgCl2, 1.2 CaCl2, 10 glucose, 10 HEPES (pH adjusted to 7.4 with NaOH) and 30 µM amiloride to block the epithelial sodium channel. Forskolin (20 µM) was added to the apical surface to activate CFTR, followed by apical addition of a CFTR inhibitor cocktail consisting of BPO, GlyH-101 and CFTR inhibitor 172 (each at 20 µM final assay concentration) to specifically isolate CFTR currents. The CFTR-mediated ISC (µA/cm2) for each condition was determined from the peak forskolin response to the steady-state current following inhibition.

T1 sequence (P13569 as listed by the source): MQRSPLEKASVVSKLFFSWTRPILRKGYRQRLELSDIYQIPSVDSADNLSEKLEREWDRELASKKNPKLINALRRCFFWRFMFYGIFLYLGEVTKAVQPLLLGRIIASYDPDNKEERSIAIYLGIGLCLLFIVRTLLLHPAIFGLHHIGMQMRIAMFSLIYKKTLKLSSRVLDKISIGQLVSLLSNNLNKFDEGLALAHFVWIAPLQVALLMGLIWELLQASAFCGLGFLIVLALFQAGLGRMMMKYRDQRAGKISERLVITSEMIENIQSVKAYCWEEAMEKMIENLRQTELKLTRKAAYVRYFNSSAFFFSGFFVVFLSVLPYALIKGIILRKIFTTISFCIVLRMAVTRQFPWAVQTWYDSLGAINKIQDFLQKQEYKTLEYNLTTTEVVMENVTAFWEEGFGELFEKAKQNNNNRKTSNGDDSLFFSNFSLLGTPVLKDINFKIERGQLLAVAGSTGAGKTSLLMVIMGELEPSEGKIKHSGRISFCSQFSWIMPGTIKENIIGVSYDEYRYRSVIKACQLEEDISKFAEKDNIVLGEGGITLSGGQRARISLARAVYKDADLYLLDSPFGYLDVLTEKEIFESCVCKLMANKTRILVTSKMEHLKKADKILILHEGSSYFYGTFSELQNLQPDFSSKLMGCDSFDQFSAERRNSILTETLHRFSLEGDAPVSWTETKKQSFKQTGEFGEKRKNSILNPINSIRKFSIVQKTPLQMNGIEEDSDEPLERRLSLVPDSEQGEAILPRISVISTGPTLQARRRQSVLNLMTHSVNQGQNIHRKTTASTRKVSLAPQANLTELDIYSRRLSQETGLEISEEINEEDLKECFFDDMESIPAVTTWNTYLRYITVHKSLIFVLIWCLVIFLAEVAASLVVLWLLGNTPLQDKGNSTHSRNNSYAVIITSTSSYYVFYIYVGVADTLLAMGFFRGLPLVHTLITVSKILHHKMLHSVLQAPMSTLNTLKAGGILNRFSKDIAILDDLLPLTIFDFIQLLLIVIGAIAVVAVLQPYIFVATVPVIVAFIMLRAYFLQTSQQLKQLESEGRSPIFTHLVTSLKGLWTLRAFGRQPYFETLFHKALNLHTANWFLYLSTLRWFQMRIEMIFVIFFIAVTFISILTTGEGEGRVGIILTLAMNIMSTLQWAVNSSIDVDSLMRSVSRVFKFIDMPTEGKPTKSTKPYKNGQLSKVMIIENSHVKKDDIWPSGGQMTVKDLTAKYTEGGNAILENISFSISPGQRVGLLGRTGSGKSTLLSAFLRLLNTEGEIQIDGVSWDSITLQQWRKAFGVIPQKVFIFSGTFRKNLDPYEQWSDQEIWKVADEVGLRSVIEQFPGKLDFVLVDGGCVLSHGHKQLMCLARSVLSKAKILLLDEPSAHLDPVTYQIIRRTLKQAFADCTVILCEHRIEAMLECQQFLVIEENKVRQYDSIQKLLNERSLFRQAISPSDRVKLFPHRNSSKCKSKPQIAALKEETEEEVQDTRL

Row | Structure (SMILES) | EC50 [nM]
1 | Nc1cc(C(F)(F)F)c2nc1-c1nnc(o1)C(O)(C(F)(F)F)CCCC[C@@H]1CCCN21 (stereo partly specified) [WO2022109573, Compound 32] | < 500
2 | Nc1cc(C(F)(F)F)c2nc1-c1nnc(o1)[C@@](O)(C(F)(F)F)CCCCCC[C@@H]1CCCN21 [WO2022109573, Compound 23] | < 500
3 | CCNc1cc(C(F)(F)F)c2nc1-c1nnc(o1)[C@@](O)(C(F)(F)F)CCCCC[C@@H]1CCCN21 [WO2022109573, Compound 14] | < 500
4 | Nc1cc(C(F)(F)F)c2nc1-c1nnc(o1)/C(=N\O)CCCCC[C@@H]1CCCN21 [WO2022109573, Compound 31] | < 500
5 | CC1(C)CC2CCCCCC(O)(C(F)(F)F)C3=NN=C(O3)c3nc(c(C(F)(F)F)cc3N)N2C1 (stereo unspecified) [WO2022109573, Compound 29] | < 500
6 | CNc1cc(C(F)(F)F)c2nc1-c1nnc(o1)[C@@](O)(C(F)(F)F)CCCCC[C@@H]1CCCN21 [WO2022109573, Compound 13] | < 500
7 | Nc1cc(C(F)(F)F)c2nc1-c1nnc(o1)C(O)(C(F)(F)F)CCCCCCN2CCO (stereo unspecified) [WO2022109573, Compound 41] | < 500
8 | Nc1cc(C(F)(F)F)c2nc1-c1nnc(o1)[C@](O)(C(F)(F)F)CCCCCC[C@H]1CCCN21 [WO2022109573, Compound 25] | < 500
9 | Nc1cc(C(F)(F)F)c2nc1-c1nnc(o1)[C@@](O)(C(F)(F)F)CCCC[C@@H]1CCCN21 [WO2022109573, Compound 17] | < 500
10 | Nc1cc(C(F)(F)F)c2nc1-c1nnc(o1)[C@](O)(C(F)(F)F)CCCCC[C@H]1CCCN21 [WO2022109573, Compound 7] | < 500
11 | Nc1cc(C(F)(F)F)c2nc1-c1nnc(o1)[C@](O)(C(F)(F)F)CCCCC1CCN2C1 (stereo partly specified) [WO2022109573, Compound 9] | < 500
12 | Nc1cc(C(F)(F)F)c2nc1-c1nnc(o1)C(O)CCCCC[C@@H]1CCCN21 (stereo partly specified) [WO2022109573, Compound 21] | < 500
13 | Nc1cc(C(F)(F)F)c2nc1-c1nnc(o1)[C@@](O)(C(F)(F)F)CCCCCC[C@H]1CCCN21 [WO2022109573, Compound 24] | < 500
14 | CCOC(=O)CN1CCCCCCC(O)(C(F)(F)F)C2=NN=C(O2)c2nc1c(C(F)(F)F)cc2N (stereo unspecified) [WO2022109573, Compound 46] | < 500
15 | Nc1cc(C(F)(F)F)c2nc1-c1nnc(o1)C(O)(C(F)(F)F)CCCC(=O)N1CCN2CC1 (stereo unspecified) [WO2022109573, Compound 37] | < 500
16 | CN1CCCCCCC(O)(C(F)(F)F)C2=NN=C(O2)c2nc1c(C(F)(F)F)cc2N (stereo unspecified) [WO2022109573, Compound 19] | < 500
17 | Nc1cc(C(F)(F)F)c2nc1-c1nnc(o1)C(=O)CCCCC[C@@H]1CCCN21 [WO2022109573, Compound 36] | < 500
18 | Nc1cc(C(F)(F)F)c2nc1-c1nnc(o1)[C@@](O)(C(F)(F)F)CCCC[C@H]1CCCN21 [WO2022109573, Compound 18] | < 500
19 | Nc1cc(C(F)(F)F)c2nc1-c1nnc(o1)[C@](O)(C(F)(F)F)CCCCC[C@@H]1CCCN21 [WO2022109573, Compound 4] | < 500
20 | Nc1cc(C(F)(F)F)c2nc1-c1nnc(o1)[C@@](O)(C(F)(F)F)CCCCC1CCN2C1 (stereo partly specified) [WO2022109573, Compound 8] | < 500
21 | CC1(O)CCCCC[C@@H]2CCCN2c2nc(c(N)cc2C(F)(F)F)C2=NN=C1O2 (stereo partly specified) [WO2022109573, Compound 45] | < 500
